The numbers were not newly measured in publication PMC9943811 (Diabetes Therapy, 2022), which cites them from elsewhere.

For this data set the following is noted: ref [19], [20].

On to `N[C@@H](CC(=O)N1CCn2c(nnc2C(F)(F)F)C1)Cc1cc(F)c(F)cc1F` [sitagliptin], for which the terminal half-life entry is reported as “around 12 h”.
